Here are results for 7 molecules from PMC11902257, “Antiprotozoal Aminosteroids from Pachysandra terminalis” (Molecules, 2025).

Type in all cases: cell-based
Series [1] has as its system Trypanosoma brucei rhodesiense (Tbr) STIB900 strain. Description: in vitro antitrypanosomal assay, bloodstream forms, resazurin. Particulars: for SI(Tbr): Selectivity index IC50(Cytotox)/IC50(Tbr); for IC50: Trypanosoma brucei, read-out: IC50 Tbr (converted). The protocol: Trypanosoma brucei rhodesiense (Tbr): The STIB900 strain is a derivative of the STIB704 strain isolated from a patient in Ifakara, Tanzania, in 1982 [43]. The bloodstream forms were cultivated as axenic culture in HMI-9 medium, supplemented with 15% heat-inactivated horse serum. Cultures were maintained at 37 °C in an atmosphere of 5% CO2. Test compounds were dissolved in DMSO (10 mg/mL), and serial drug dilutions of eleven 3-fold dilution steps covering a range from 100 to 0.002 μg/mL were prepared in a 96-well plate. Bloodstream-form of T. b rhodesiense strain STIB900 (2 × 10^3/well) was added into the wells. After 68 h incubation, 10 μL of resazurin solution (12.5 mg resazurin in 100 mL 1xPBS) was added per well, and plates were incubated for an additional 4 h. Subsequently, the plates were read with a Spectramax Gemini EM microplate fluorometer (Molecular Devices, San Jose, CA, USA) using an excitation wavelength of 536 nm and an emission wavelength of 588 nm. Data were treated according to [44] (see below). Melarsoprol was used as a positive control.
(§1) Bioassay data and statistical methods: In all cases, the readout data were plotted in Microsoft Excel. Half-maximal inhibitory concentrations (IC50 values) were calculated from the sigmoidal dose-response curves by linear regression. Two independent replicates of the assay were performed in all cases, and the results were expressed as arithmetic mean ± deviation from the mean.
A general note: Alamar Blue is a resazurin reagent that responds to reducing activity.

In series [2] the test system is Plasmodium falciparum (Pf) NF54 strain. The series is described as follows: in vitro antiplasmodial assay, 3H-hypoxanthine incorporation, erythrocytic stages. Particulars: for IC50: Plasmodium falciparum, read-out: IC50 Pf (converted); for SI (Pf): Selectivity index IC50(Cytotox)/IC50(Pf), pure compounds. The procedure: Plasmodium falciparum (Pf): Tests were performed against erythrocytic stages of the drug-sensitive NF54 strain. The NF54 strain was obtained from F. Hoffmann-La Roche Limited (Basel, Switzerland). The strain NF54 was originally derived from a patient living near Schiphol Airport, Amsterdam, who had never left the Netherlands. The assay was performed using a 3H-hypoxanthine incorporation assay. Serial compound dilutions were prepared with the medium as indicated above and then added in 96-well plates to parasite cultures incubated in the medium previously described, consisting of RPMI 1640 supplemented with 0.5% ALBUMAX® II, 25 mM Hepes, 25 mM NaHCO3 (pH 7.3), 0.36 mM hypoxanthine, and 100 μg/mL neomycin. The plates were incubated in a humidified atmosphere at 37 °C, 4% CO2, 3% O2, and 93% N2. After 48 h, 0.25 μCi of 3H-hypoxanthine was added to each well. Incubation was continued under identical conditions for a further 24 h. The plates were then harvested using a Betaplate™ cell harvester (Wallac, Zurich, Switzerland). The red blood cells were transferred onto a glass fiber filter and washed with distilled H2O. After drying, filters were inserted into a plastic foil with 10 mL of scintillation fluid and counted with a Betaplate™ liquid scintillation counter (Wallac, Zurich, Switzerland). Data were treated according to [44] (see below). The positive control was chloroquine.
as §1

A short description of series [3]: cytotoxicity against L-6 rat skeletal myoblasts, resazurin. The procedure:
Cytotoxicity against L-6 rat skeletal myoblasts: The L6 rat skeletal myoblast cell line used for cytotoxicity tests was obtained from the American Type Culture Collection (ATCC, Manassas, VA, USA) as ATCC-CRL-1458 [50]. The cells were cultivated in RPMI 1640 medium supplemented with 1% L-glutamine (200mM) and 10% fetal bovine serum. Cultures were maintained at 37 °C in an atmosphere of 5% CO2. Assays were performed in 96-well plates, each well containing RPMI 1640 medium supplemented with 1% L-glutamine (200 mM), 10% fetal bovine serum, and 2 × 10^3 L-6 cells/well. Plates were incubated at 37 °C under a 5% CO2 atmosphere for 24 h. Compounds were dissolved in DMSO (10 mg/mL). After 24 h, serial drug dilutions of eleven 3-fold dilution steps covering a range from 100 to 0.002 μg/mL were prepared, and the plates were incubated at 37 °C under 5% CO2 for 70 h. After 70 h incubation, 10 μL of resazurin solution (12.5 mg resazurin in 100 mL 1xPBS) was added per well, and plates were incubated for an additional 2 h. After that, the plates were read with a Spectramax Gemini EM microplate fluorometer (Molecular Devices, San Jose, CA, USA) using an excitation wavelength of 536 nm and an emission wavelength of 588 nm. Data were treated according to [44] (see below). Podophyllotoxin served as a positive control.
as §1

The mark [4] stands for this setting: pure compounds, tested as mono- or bis-trifluoroacetates where marked.
Setting [5] is: values in brackets, calculated with the molecular masses of the corresponding salts.
Setting [6] is: NF54, pure compounds, tested as mono- or bis-trifluoroacetates where marked.
Setting [7] is: NF54, values in brackets, calculated with the molecular masses of the corresponding salts.

Several values for one entry are separate records, joined by “and”; a condition that tells them apart may be missing. Identical values can stand only once. Like-named read-outs stand apart in the source and are kept apart here.

One may read the IC50 as the point on the concentration scale where inhibition reaches its midpoint. With `CN[C@@H]1CC[C@@]2(C)[C@@H](CC[C@@H]3[C@@H]2CC[C@]2(C)[C@@H]([C@H](C)N(C)C)CC[C@@H]32)C1` [Compound 8, Pachysamine A], the “SI(Tbr)” value in series [1] (pure compounds) worked out at 13. The half-inhibitory concentration (IC50) in series [1] (setting [4]) is 0.8 ± 0.1 µg/mL; in series [1] (setting [5]), 1.3 µM; in series [2] (setting [6]), 1.82 ± 0.06 µg/mL; in series [2] (setting [7]), 3.09 µM. Also, in series [2], the “SI (Pf)” value amounted to 6. For the same molecule, in series [3], the concentration for half-maximal inhibition (IC50) at 70 h is 10.4 µg/mL and 17.7 µM.
For `CC1=CC(=O)CC(C)(C)C1CCC(C)N(C)C` (stereo not drawn) [Compound 1], the “SI(Tbr)” value in series [1] (pure compounds) was found to be 8. For the same molecule, the IC50 in series [1] (setting [4]) is 6.2 ± 0.9 µg/mL; in series [1] (setting [5]), 26.2 µM; in series [2] (setting [6]), 0.93 ± 0.07 µg/mL; in series [2] (setting [7]), 3.91 µM. In addition, the “SI (Pf)” value in series [2] stood at 51. In addition, the IC50 at 70 h in series [3] was 47 µg/mL and 198 µM.
As to `CN[C@@H](C)[C@H]1CC[C@H]2[C@@H]3CC[C@H]4C[C@@H]([N+](C)(C)CCl)CC[C@]4(C)[C@H]3CC[C@]12C` [Compound 6, N3-chloromethyl-desacyl-epipachysamine A], the “SI(Tbr)” value in series [1] (pure compounds) is 74. For the same molecule, the half-maximal inhibitory concentration (IC50) in series [1] (setting [4]) is 1.2 ± 0.4 µg/mL; in series [1] (setting [5]) it was 1.9 µM; in series [2] (setting [6]), 0.25 ± 0.03 µg/mL; in series [2] (setting [7]), 0.39 µM. In addition, the “SI (Pf)” value in series [2] worked out at 346. Besides, the IC50 at 70 h in series [3] is 87 µg/mL and 136 µM.
Turning to `C[C@@H]([C@H]1CC[C@H]2[C@@H]3CC=C4C[C@@H](NC(=O)c5cccnc5)CC[C@]4(C)[C@H]3CC[C@]12C)N(C)C` [Compound 5, Pactermine A], the “SI(Tbr)” value in series [1] (pure compounds) is on record as 3. Besides, the IC50 in series [1] (setting [4]) was 1.93 ± 0.06 µg/mL; in series [1] (setting [5]) it was 2.85 µM; in series [2] (setting [6]), 0.91 ± 0.02 µg/mL; in series [2] (setting [7]) it was 1.34 µM. Moreover, the “SI (Pf)” value in series [2] amounted to 6. Also, the IC50 at 70 h in series [3] is 5.8 µg/mL and 8.6 µM.
Turning to `C[C@@H]([C@H]1CC[C@H]2[C@@H]3CC[C@H]4C[C@]5(CC[C@]4(C)[C@H]3CC[C@]12C)c1ccccc1C(=O)N5C)N(C)C` [Compound 15, Spiropachysine], in series [1] (pure compounds), the “SI(Tbr)” value is reported as 3. The IC50 is 2.21 ± 0.04 µg/mL in series [1] (setting [4]), 3.83 µM in series [1] (setting [5]), 3 ± 1 µg/mL in series [2] (setting [6]) and 6 µM in series [2] (setting [7]). Also, the “SI (Pf)” value in series [2] was determined as 2. For the same molecule, the IC50 at 70 h in series [3] is 7.3 µg/mL and 12.7 µM.
For `C[C@@H]([C@H]1CC[C@H]2[C@@H]3CC[C@H]4C[C@@H](N(C)C)CC[C@]4(C)[C@H]3CC[C@]12C)N(C)C` [Compound 12, N-methyl-desacyl-epipachysamine A], in series [1] (pure compounds), the “SI(Tbr)” value is 3. The IC50 in series [1] (setting [4]) is 2.3 ± 0.2 µg/mL; in series [1] (setting [5]), 3.9 µM; in series [2] (setting [6]) it was 2.5 ± 0.3 µg/mL; in series [2] (setting [7]) it was 4.1 µM. Further, in series [2], the “SI (Pf)” value was 3. Further, the IC50 at 70 h in series [3] is 7 µg/mL and 11 µM.
For `CN[C@@H](C)[C@H]1CC[C@H]2[C@@H]3CC[C@H]4C[C@@H](N(C)C)CC[C@]4(C)[C@H]3CC[C@]12C` [Compound 3, Desacyl-epipachysamine A], the IC50 is 2 ± 0.2 µg/mL in series [1] (setting [4]), 3.5 µM in series [1] (setting [5]), 0.85 ± 0.03 µg/mL in series [2] (setting [6]) and 1.44 µM in series [2] (setting [7]). Also, the “SI (Pf)” value in series [2] is reported as 21. Moreover, in series [3], the IC50 at 70 h is 18 µg/mL and 30 µM.
